Experimental data as given in ChEMBL document CHEMBL1125655 (J Med Chem, 1991).

Test: pKa value of the compound
Type: physicochemical

**Q.** With CN1CC[C@]23c4c5ccc(O)c4O[C@H]2[C@@H](O[C@@H]2O[C@H](C(=O)O)[C@@H](O)[C@H](O)[C@H]2O)C=C[C@H]3[C@H]1C5 (stereo in doubt; form 1) [MORPHINE GLUCURONIDE] as the molecule, how does the pKa read?
**A.** 3.23
